{"source": "paper PMC8070004", "about": "“Isorhamnetin Ameliorates Dry Eye Disease via CFTR Activation in Mice” (International Journal of Molecular Sciences, 2021)", "key": {"hERG potassium channel": {"biological_target": "T1, hERG potassium channel (Homo sapiens, UniProt Q12809)", "T1 construct": "expressed in transfected cells; host or cells: HEK293 / HEK293T", "assay": "FluxOR potassium ion channel assay in HEK293T cells expressing hERG", "assay_type": "cell-based", "conditions": "30 μM pretreated for 10 min", "procedure": "HEK293 cells stably expressing human Kv11.1 (hERG) were plated in 96-well plates. After 48 h, the cells were incubated at 28 °C for 4 h to enhance membrane expression of hERG. The culture medium was replaced with 80 μL/well of FluxOR (Invitrogen) loading buffer and incubated for 1 h at 37 °C in the dark. After removal of the loading buffer, 100 µL of assay buffer were added to each well. To measure the effect of isorhamnetin on hERG channels, the cells were pretreated with isorhamnetin for 10 min. FluxOR fluorescence (excitation/emission: 490/525 nm) was recorded for 4 s before addition of 20 μL of stimulus buffer containing thallium ions, and the fluorescence was monitored. FluxOR fluorescence was recorded and analyzed using FLUOstar Omega Microplate Reader (BMG Labtech) and MARS Data Analysis Software (BMG Labtech). All buffers were prepared according to the manufacturer’s instructions."}, "ENaC": {"biological_target": "T2, ENaC (Homo sapiens, UniProt P37088+P51168+P51170)", "T2 construct": "endogenous in cells; host or cells: T84 cells (provided by Dr. Min Goo Lee)", "assay": "ENaC short-circuit current in T84 cells", "assay_type": "cell-based", "conditions": "30 μM applied 10 min prior to 100 µM amiloride", "procedure": "Snapwell inserts containing CFTR-expressing FRT and T84 cells were mounted in Ussing chambers (Physiologic Instruments, San Diego, CA, USA). Forskolin, isorhamnetin, and CFTRinh-172 were added to the apical and basolateral bath solution. For FRT cells, the apical bath was filled with a half-Cl^− solution and the basolateral bath was filled with HCO^3--buffered solution to generate transepithelial Cl^− gradient (apical, 64 mM; basolateral, 129 mM), and the basolateral membrane was permeabilized with 250 µg/mL amphotericin B. For T84 cells, symmetrical HCO^3--buffered solutions were used, and ENaC was inhibited with amiloride (100 µM). All cells were bathed for a 20-min stabilization period and aerated with 95% O2/5% CO2 at 37 °C. Apical membrane current and short-circuit current were measured with an EVC4000 Multi-Channel V/I Clamp (World Precision Instruments, Sarasota, FL, USA) and recorded using PowerLab 4/35 (AD Instruments, Castle Hill, Australia). Data were collected and analyzed with ADInstruments acquisition software Labchart Pro 7 software. The sampling rate was 4 Hz."}, "CD-1 mice": {"test_system": "CD-1 mice", "assay": "Tear volume by phenol red thread tear test in normal CD-1 mice", "assay_type": "in vivo, mouse", "conditions": "single 2.5 μL ocular delivery, 30 µM isorhamnetin", "procedure": "Tear volume was measured using phenol red threads (Zone-Quick, Oasis Medical, Glendora, CA, USA) by placing them in the lateral canthi of normal CD-1 or dry eye model-treated BL6 mice for 10 s using forceps. Tear volume was measured using a Vernier caliper as the length of thread wetting under a microscope. For normal CD-1 mice, serial measurements were done to evaluate compound pharmacodynamics compared to the vehicle after topical application of a single, 2.5-μL drop of compound formulations containing 20 μM forskolin, 30 μM isorhamnetin, or 20 μM CFTRinh-172 in PBS with 0.1% DMSO."}, "human CFTR": {"biological_target": "T3, human CFTR (Homo sapiens, UniProt P13569)", "T3 construct": "expressed in transfected cells; host or cells: CHO-K1", "assay": "YFP quenching assay in CHO-K1 cells expressing CFTR and halide sensor YFP", "assay_type": "cell-based", "conditions": "isorhamnetin applied 10 min prior to I- addition", "procedure": "CHO cells expressing wild-type CFTR with the halide sensor YFP-H148Q/I152L were plated in 96-well, black-walled microplates (Corning Inc., Corning, NY, USA) at a density of 2 × 10^4 cells per well. CHO-WT-CFTR-YFP cells were incubated for 48 h at 37 °C. Assays were done using FLUO star Omega microplate reader (BMG Labtech, Ortenberg, Germany) and MARS Data Analysis Software (BMG Labtech). Briefly, each well of a 96-well plate was washed three times in PBS (200 µL/wash). Then, 100 µL PBS was added to each well. Test compounds (1 µL) were added to each well at final concentration of 25 µM. After 10 min, 96-well plates were transferred to the microplate reader preheated to 37 °C for fluorescence assay. Each well was assayed individually for CFTR-mediated I^- influx by recording fluorescence continuously (400 ms per point) for 2 s (baseline). Then, 100 µL of 140 mM I^- solution were added at 2 s and then YFP fluorescence was recorded for 14 s. Initial iodide influx rate was determined from the initial slope of fluorescence decrease, by nonlinear regression, following infusion of iodide."}, "human ANO1": {"biological_target": "T4, human ANO1 (Homo sapiens, UniProt Q5XXA6)", "T4 construct": "expressed in transfected cells; host or cells: FRT cells (FRT-ANO1)", "T4 sequence (Q5XXA6 1-986)": "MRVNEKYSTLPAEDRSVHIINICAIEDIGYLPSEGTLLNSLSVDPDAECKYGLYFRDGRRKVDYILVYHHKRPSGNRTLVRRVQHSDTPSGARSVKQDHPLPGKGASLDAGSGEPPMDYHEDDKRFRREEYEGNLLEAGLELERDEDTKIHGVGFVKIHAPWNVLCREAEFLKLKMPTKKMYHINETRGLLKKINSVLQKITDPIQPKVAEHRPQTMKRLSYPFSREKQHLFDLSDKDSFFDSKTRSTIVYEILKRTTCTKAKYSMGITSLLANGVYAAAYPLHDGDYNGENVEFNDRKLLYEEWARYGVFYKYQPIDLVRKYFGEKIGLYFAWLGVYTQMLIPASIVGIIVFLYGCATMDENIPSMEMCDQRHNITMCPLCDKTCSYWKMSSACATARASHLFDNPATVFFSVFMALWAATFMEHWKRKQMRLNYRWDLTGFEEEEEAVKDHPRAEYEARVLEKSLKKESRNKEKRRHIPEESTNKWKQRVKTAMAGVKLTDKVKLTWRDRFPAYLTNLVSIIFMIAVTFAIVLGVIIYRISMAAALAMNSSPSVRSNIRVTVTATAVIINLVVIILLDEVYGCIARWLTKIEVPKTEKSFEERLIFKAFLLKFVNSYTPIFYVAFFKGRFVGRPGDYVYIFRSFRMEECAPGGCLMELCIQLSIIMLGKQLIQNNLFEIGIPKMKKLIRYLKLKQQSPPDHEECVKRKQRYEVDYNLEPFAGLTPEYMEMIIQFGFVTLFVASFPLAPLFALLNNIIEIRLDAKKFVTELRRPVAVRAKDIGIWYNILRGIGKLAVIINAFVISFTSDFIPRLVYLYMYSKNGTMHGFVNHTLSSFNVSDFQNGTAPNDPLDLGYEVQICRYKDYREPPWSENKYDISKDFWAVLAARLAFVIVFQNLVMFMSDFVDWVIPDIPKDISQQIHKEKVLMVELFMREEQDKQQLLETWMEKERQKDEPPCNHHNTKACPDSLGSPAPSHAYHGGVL", "assay": "Apical membrane current in FRT cells expressing human ANO1", "assay_type": "cell-based", "conditions": "30 μM added 10 min prior to ANO1 activation by 100 μM ATP"}}, "data": [{"smiles": "COc1cc(-c2oc3cc(O)cc(O)c3c(=O)c2O)ccc1O", "note": "[isorhamnetin]", "values": [{"measurement": "hERG channel activity", "setting": "hERG potassium channel", "result": "did not affect"}, {"measurement": "ENaC function (short-circuit current)", "setting": "ENaC", "result": "did not alter"}, {"measurement": "tear volume", "setting": "CD-1 mice", "result": "significantly increased"}, {"measurement": "CFTR chloride channel activity (YFP quenching)", "setting": "human CFTR", "result": "significantly increased"}, {"measurement": "ANO1 function (apical membrane current)", "setting": "human ANO1", "result": "did not alter"}]}]}
